The text below walks through data of patent US7678884B2, “Biologically active peptide and agent containing the same” (Seikagaku Corporation, priority 2003, dated 2010).

The test system of the assay is Human-derived Periodontal Ligament Cells (PDL Cells). Nature of the assay: Cell growth of PDL cells (cell number by Coulter counter). The settings on record: peptide added at various concentrations to DMEM containing 2% FBS; counted on Days 4 and 6; versus control medium (FIG. 1, FIG. 2). In kind it is cell-based. An excerpt: PDL cells were isolated from a healthy premolar carefully extracted from a patient who visited a hospital to extract teeth for orthodontic treatment so that periodontal ligament should not be damaged as far as possible, and cultured. The extracted tooth was washed with sterilized physiological saline and phosphate-buffered saline (PBS, Nissui), and then periodontal ligament existing in ⅓ of the tooth root at the center was scraped off with a sharp knife. The pieces of periodontal ligament were transferred to a plastic plate and minced into small fragments using a round-blade knife. Tissue fragments were left standing in a plate having a diameter of 35 mm (FALCON) and cultured in Dulbecco's modified Eagle medium (DMEM, Nissui) containing antibiotics (100 U/ml of penicillin G, 100 μg/ml of streptomycin and 250 μg/ml of gentamicin) and 10% fetal bovine serum (FBS, EQUITECH-BIO) at 37° C. under 5% CO2. […]
The PDL cells prepared in (1) were inoculated on a 24-well culture plate (FALCON) at a ratio of 5×10^3 cells/well. […] On Days 4 and 6, the cells were separated and dispersed by using PBS containing 0.08% trypsin and 0.04% ethylenediaminetetraacetic acid (EDTA), and cell number was counted by using a Coulter counter (COULTER Z1, Coulter Electronics). […]

Ends that are not written are not given here.

For the sequence VPAFPRQPGTPGVASL [Peptide (a)], the “PDL cell number (cell growth promoting effect)” value is “significantly increased”.
